Data from patent US20050288351A1, “Azaspiro compounds for the treatment of pain” (Schwarz Pharma AG, priority 2002, published 2005).

Columns and labels:
NMRl mice = assay: formalin test, in-vivo test for determining the analgesic efficacy; set-up: key to Mean deviation of the pain reaction compared to control (%) (n minutes after administration of formalin) 20-25′ / Mean deviation of the pain reaction compared to control (%) (n minutes after administration of formalin) 30-35′: (+): Intensified pain reaction; details: for Mean deviation of the pain reaction compared to control (%) (n minutes after administration of formalin) 20-25′: 20-25′ after formalin; for Mean deviation of the pain reaction compared to control (%) (n minutes after administration of formalin) 30-35′: 30-35′ after formalin; for Mean deviation of the pain reaction compared to control (%) (n minutes after administration of formalin) 40-45′: 40-45′ after formalin; for average reduction of the pain reaction: after 30-45 minutes in the formalin test
Procedure: (§1) In each case, the maximum dosage selected for the concentration of azaspiro compounds was held, by a factor of about 2, below the toxic dose previously determined in the IRWIN test (Irwin, Psychopharmacologia 13 (1968) 222).
A reduction in the pain reaction is expressed in negative percentage figures.
The test was conducted as described by Wheeler-Aceto (Psychopharmacology 104, 1991, 35).
NMRl mice having a weight of 20-25 g were kept under controlled conditions (22±2° C., 40-70% relative humidity). 25 μl of a 5% […] solution was injected in the hind leg and the leg-licking frequency was then clocked for 5 minutes each at defined intervals (20, 30, 40 minutes).
(§2) First, the highest possible non-toxic concentration of the respective test substances that could be used was determined by an IRWIN test (Irwin, Psychopharmacologia 13, 1968, 222).
The test substances were dissolved in a physiological salt solution with 0.5% sodium carboxymethyl cellulose and were each measured in 1-3 dosages that had been applied intraperitoneally 10 minutes before administration of formalin. The comparative reference value was provided by a control excipient (10 ml/kg).
The test was performed in blind fashion on 10 mice per test series. The evaluation was based on a comparison of the treated animals with control excipients at three different times. […] Accordingly, an average 50% reduction of the pain reaction for the treated animals is obtained when in a defined period (e.g. 30-35′ after the formalin injection) the leg-licking duration (averaged over the 10 test animals) is reduced by 50% compared to the untreated animals. The statistical significance was determined using the Mann-Whitney U-test.

[1] = side effects above the maximum tolerable dosages (IRWIN test); format: in vivo
Procedure: as §1, with “FIG. 1 and Table 1 show the reaction of test animals (10 mice each) 20-45 minutes after the intraperitoneal administration of selected compounds. In” for “In”
as §2

[2] = 8 mg/kg i.p., Test series 1, n = 10 mice
[3] = 8 mg/kg i.p., Test series 2, n = 10 mice
[4] = 16 mg/kg i.p., Test series 1, n = 10 mice
[5] = 16 mg/kg i.p., Test series 2, n = 10 mice
[6] = 32 mg/kg i.p., Test series 1, n = 10 mice
[7] = 32 mg/kg i.p., Test series 2, n = 10 mice
[8] = 4 mg/kg i.p., Test series 2, n = 10 mice
[9] = 64 mg/kg i.p., Test series 1, n = 10 mice
[10] = 64 mg/kg i.p., Test series 2, n = 10 mice

| Structure (SMILES) | Mean deviation of the pain reaction compared to control (%) (n minutes after administration of formalin) 20-25′ (NMRl mice; 32 mg/kg i.p., n = 10 mice) | Mean deviation of the pain reaction compared to control (%) (n minutes after administration of formalin) 30-35′ (NMRl mice; 32 mg/kg i.p., n = 10 mice) | Mean deviation of the pain reaction compared to control (%) (n minutes after administration of formalin) 40-45′ (NMRl mice; 32 mg/kg i.p., n = 10 mice) | Mean deviation of the pain reaction compared to control (%) (n minutes after administration of formalin) 20-25′ (NMRl mice; [4]) | Mean deviation of the pain reaction compared to control (%) (n minutes after administration of formalin) 30-35′ (NMRl mice; [4]) | Mean deviation of the pain reaction compared to control (%) (n minutes after administration of formalin) 40-45′ (NMRl mice; [4]) | Mean deviation of the pain reaction compared to control (%) (n minutes after administration of formalin) 20-25′ (NMRl mice; [5]) | Mean deviation of the pain reaction compared to control (%) (n minutes after administration of formalin) 30-35′ (NMRl mice; [5]) | Mean deviation of the pain reaction compared to control (%) (n minutes after administration of formalin) 20-25′ (NMRl mice; [6]) | Mean deviation of the pain reaction compared to control (%) (n minutes after administration of formalin) 30-35′ (NMRl mice; [6]) | Mean deviation of the pain reaction compared to control (%) (n minutes after administration of formalin) 40-45′ (NMRl mice; [6]) | further results |
| --- | --- | --- | --- | --- | --- | --- | --- | --- | --- | --- | --- | --- |
| S=C1CC2(CCCCC2)CN1 [SPM 0013, 2-azaspiro[4.5]decane-3-thion] | −99% | −32 | −4 | – | – | – | – | – | – | – | – | – |
| ON=C1CC2(CCCCCC2)CN1 [SPM 6873, N-(2-azaspiro[4.6]undecane-3)-oxim] | – | – | – | – | – | – | – | – | – | – | – | Mean deviation of the pain reaction compared to control (%) (n minutes after administration of formalin) 20-25′ (NMRl mice; 16 mg/kg i.p., n = 10 mice): (+); Mean deviation of the pain reaction compared to control (%) (n minutes after administration of formalin) 30-35′ (NMRl mice; 16 mg/kg i.p., n = 10 mice): −35%; Mean deviation of the pain reaction compared to control (%) (n minutes after administration of formalin) 40-45′ (NMRl mice; 16 mg/kg i.p., n = 10 mice): −38%; average reduction of the pain reaction (NMRl mice; 16 mg/kg per Table 1): 36.5% |
| C1CCC2(CC1)CCNC2 [SPM 0019, 2-azaspiro[4.5]decane] | −67% | −21 | −26 | – | – | – | – | – | – | – | – | – |
| ON=C1CC2(CCCCC2)CN1 [SPM 6850, N-(2-azaspiro[4.5]decane-3)-oxim] | (+) | −50 | −38 | – | – | – | – | – | – | – | – | average reduction of the pain reaction (NMRl mice; 32 mg/kg per Table 1): 44% |
| O=C1CC2(CCCCC2)CN1 [GBP-L, 2-azaspiro[4.5]decan-3-on, reference compound] | – | – | – | −74 | −40 | −41 | (+) | (+) | −64 | −15 | −46 | lethality [1]: significant lethality rate; Mean deviation of the pain reaction compared to control (%) (n minutes after administration of formalin) 20-25′ (NMRl mice; [2]): −58%; Mean deviation of the pain reaction compared to control (%) (n minutes after administration of formalin) 30-35′ (NMRl mice; [2]): −18%; Mean deviation of the pain reaction compared to control (%) (n minutes after administration of formalin) 40-45′ (NMRl mice; [2]): −15%; Mean deviation of the pain reaction compared to control (%) (n minutes after administration of formalin) 20-25′ (NMRl mice; [3]): (+); Mean deviation of the pain reaction compared to control (%) (n minutes after administration of formalin) 30-35′ (NMRl mice; [3]): (+); Mean deviation of the pain reaction compared to control (%) (n minutes after administration of formalin) 20-25′ (NMRl mice; [7]): (+); Mean deviation of the pain reaction compared to control (%) (n minutes after administration of formalin) 30-35′ (NMRl mice; [7]): −10% |
| S=C1CC2(CCCCCC2)CN1 [SPM 6868, 2-azaspiro[4.6]undecane-3-thion] | – | – | – | −62 | −29 | −49 | −42% | −30% | −83 | −0 | −24 | melting point: 132.3 °C; Mean deviation of the pain reaction compared to control (%) (n minutes after administration of formalin) 20-25′ (NMRl mice; [8]): −53%; Mean deviation of the pain reaction compared to control (%) (n minutes after administration of formalin) 30-35′ (NMRl mice; [8]): −7%; Mean deviation of the pain reaction compared to control (%) (n minutes after administration of formalin) 40-45′ (NMRl mice; [8]): −16%; Mean deviation of the pain reaction compared to control (%) (n minutes after administration of formalin) 40-45′ (NMRl mice; [5]): −31%; Mean deviation of the pain reaction compared to control (%) (n minutes after administration of formalin) 20-25′ (NMRl mice; [9]): −89%; Mean deviation of the pain reaction compared to control (%) (n minutes after administration of formalin) 30-35′ (NMRl mice; [9]): −67%; Mean deviation of the pain reaction compared to control (%) (n minutes after administration of formalin) 40-45′ (NMRl mice; [9]): −83%; Mean deviation of the pain reaction compared to control (%) (n minutes after administration of formalin) 20-25′ (NMRl mice; [10]): −100%; Mean deviation of the pain reaction compared to control (%) (n minutes after administration of formalin) 30-35′ (NMRl mice; [10]): −98%; Mean deviation of the pain reaction compared to control (%) (n minutes after administration of formalin) 40-45′ (NMRl mice; [10]): −93% |
